According to the NIST ThermoML archive (doi:10.1021/je900550v):

Conditions: 101.33 kPa, Liquid; for speed of sound: Pulse-echo method; for mass density: Vibrating tube method

C[NH2+]CCO.O=C[O-] [2-hydroxy-N-methylethanaminium formate]
Conditions	mass density [kg/m3]	speed of sound [m/s]	viscosity [mPa·s]
308.15 K	1122.67	1795.8	13.73
308.4 K	1122.53	1795.4	–
308.65 K	1122.39	1794.9	–
308.9 K	1122.25	1794.4	–
309.15 K	1122.11	1793.9	–
309.4 K	1121.97	1793.4	–
309.65 K	1121.83	1792.9	–
309.9 K	1121.69	1792.5	–
310.15 K	1121.55	1792	12.78
310.4 K	1121.41	1791.5	–
310.65 K	1121.27	1791	–
310.91 K	1121.13	1790.5	–
311.16 K	1120.99	1790	–
311.4 K	1120.85	1789.5	–
311.65 K	1120.71	1789	–
311.91 K	1120.57	1788.5	–
312.16 K	1120.43	1788	–
312.41 K	1120.29	1787.6	–
312.66 K	1120.15	1787.1	–
312.91 K	1120.02	1786.6	–
313.15 K	–	–	11.4
313.16 K	1119.87	1786.1	–
313.4 K	1119.74	1785.6	–
313.66 K	1119.6	1785.1	–
313.9 K	1119.46	1784.6	–
314.15 K	1119.32	1784.1	–
314.4 K	1119.18	1783.6	–
314.65 K	1119.04	1783.1	–
314.9 K	1118.9	1782.7	–
315.15 K	1118.77	1782.2	10.56
315.41 K	1118.62	1781.7	–
315.65 K	1118.49	1781.2	–
315.91 K	1118.35	1780.7	–
316.16 K	1118.21	1780.2	–
316.41 K	1118.07	1779.7	–
316.66 K	1117.93	1779.2	–
316.91 K	1117.79	1778.8	–
317.16 K	1117.65	1778.3	–
317.4 K	1117.52	1777.8	–
317.65 K	–	–	9.7
317.66 K	1117.38	1777.3	–
317.91 K	1117.24	1776.8	–
318.16 K	1117.1	1776.3	–
318.41 K	1116.96	1775.8	–
318.65 K	1116.82	1775.3	–
318.9 K	1116.69	1774.8	–
319.16 K	1116.55	1774.4	–
319.41 K	1116.41	1773.9	–
319.65 K	1116.27	1773.4	–
319.91 K	1116.13	1772.9	–
320.16 K	1115.99	1772.4	–
320.41 K	1115.86	1772	–
320.65 K	1115.72	1771.5	9.07
320.91 K	1115.58	1771	–
321.15 K	1115.44	1770.5	–
321.41 K	1115.3	1770	–
321.66 K	1115.16	1769.6	–
321.9 K	1115.03	1769.1	–
322.15 K	1114.89	1768.6	–
322.41 K	1114.75	1768.1	–
322.65 K	1114.61	1767.6	–
322.91 K	1114.47	1767.2	–
323.15 K	–	–	8.38
323.16 K	1114.34	1766.7	–
323.41 K	1114.2	1766.2	–
323.65 K	1114.06	1765.7	–
323.91 K	1113.92	1765.2	–
324.16 K	1113.79	1764.8	–
324.41 K	1113.65	1764.3	–
324.65 K	1113.51	1763.8	–
324.9 K	1113.38	1763.3	–
325.16 K	1113.24	1762.8	–
325.4 K	1113.1	1762.3	–
325.66 K	1112.96	1761.9	–
325.9 K	1112.83	1761.4	–
326.16 K	1112.69	1760.9	–
326.41 K	1112.55	1760.4	–
326.66 K	1112.42	1759.9	–
326.9 K	1112.28	1759.4	–
327.16 K	1112.14	1759	–
327.4 K	1112.01	1758.5	–
327.66 K	1111.87	1758	–
327.9 K	1111.74	1757.5	–
328.15 K	1111.6	1757	–
328.41 K	1111.46	1756.5	–
328.66 K	1111.33	1756	–
328.9 K	1111.19	1755.6	–
329.16 K	1111.06	1755.1	–
329.4 K	1110.92	1754.6	–
329.65 K	1110.78	1754.1	–
329.9 K	1110.65	1753.6	–
330.16 K	1110.52	1753.2	–
330.41 K	1110.38	1752.7	–
330.66 K	1110.25	1752.2	–
330.91 K	1110.12	1751.8	–
331.16 K	1109.99	1751.3	–
331.41 K	1109.86	1750.8	–
331.66 K	1109.73	1750.3	–
331.91 K	1109.6	1749.9	–
332.16 K	1109.47	1749.4	–
332.41 K	1109.34	1748.9	–
332.66 K	1109.21	1748.5	–
332.91 K	1109.08	1748	–
333.16 K	1108.95	1747.5	–
333.41 K	1108.82	1747.1	–
333.66 K	1108.69	1746.6	–
333.91 K	1108.56	1746.2	–
334.16 K	1108.43	1745.7	–
334.41 K	1108.3	1745.2	–
334.66 K	1108.18	1744.8	–
334.91 K	1108.05	1744.3	–
335.16 K	1107.92	1743.8	–
335.41 K	1107.79	1743.4	–
335.66 K	1107.67	1742.9	–
335.91 K	1107.54	1742.5	–
336.16 K	1107.42	1742	–
336.41 K	1107.29	1741.6	–
336.66 K	1107.16	1741.1	–
336.9 K	1107.03	1740.7	–
337.16 K	1106.9	1740.2	–
337.4 K	1106.78	1739.8	–
337.66 K	1106.66	1739.4	–
337.9 K	1106.53	1738.9	–
338.15 K	1106.43	1738.6	–
